IC50 shift and IC50 data for one molecule are collected here from US20240374581A1, “SALT TYPES OF TRICYCLIC TETRAHYDRO ISOQUINOLINE DERIVATIVE” (JIANGSU HENGRUI PHARMACEUTICALS CO., LTD., priority 2021, published 2024).

In data set [1] the target is CYP3A4 (Homo sapiens (Human), UniProt P08684). The experiment in a line: Time-dependent inhibition of site of metabolism of midazolam in human liver microsome CYP3A4. The class given is in vitro ADME. The protocol:
• 1. Phosphate buffer (20×PBS, purchased from Sangon); • 2. NADPH (ACROS, A2646-71-1); • 3. Human liver microsome (Corning Gentest, Cat No. 452161, Lot No. 9050002, Donor, 36); • 4. ABI QTrap 4000 LC-MS System (AB Sciex); • 5. ZORBAX Extend-C18, 3×50 mm, 3.5 m (Agilent, USA); • 6. CYP probe substrate (midazolam, TRC, M343000/3 μM) and positive control inhibitor (verapamil, Adamas Reagent Co., Ltd, Cat No. 25904A).
A 100 mM PBS buffer was prepared. A 0.25 mg/mL microsome solution, a 7.5 mM MgCl2 and a 5 mM NADPH solution were prepared using the buffer. A 30 mM stock solution was diluted with DMSO to obtain 30 mM, 10 mM, 3 mM, 1 mM, 0.3 mM, 0.1 mM, 0.03 mM and 0 mM serial solutions I, which were further diluted 200-fold with phosphate buffer (PBS) to obtain serial test solutions II (150, 50, 15, 5, 1.5, 0.5, 0.15 and 0 μM). A midazolam working solution was diluted with PBS to 15 μM.
The serial test solutions prepared above were well mixed by shaking and aliquoted in 20 μL portions into corresponding reaction plates (+NADPH, T0 and -NADPH groups were set). Three parallel tests were set. 40 μL of the liver microsome working solution was added to each 96-well plate. 20 μL of a corresponding substrate solution was added to the TO plate. 20 μL of NADPH was added to the TO plate and +NADPH group. A timer was started, and the plates were incubated in a water bath at 37° C. After 30 min of incubation, the TO plate was taken out, and the reaction was terminated with 250 μL of an internal standard-containing ACN solution. The +NADPH group was supplemented with 20 μL of the corresponding substrate solution, and the −NADPH group was supplemented with 20 μL of the corresponding substrate solution and […]. A timer was started, and the plates were incubated in a water bath at 37° C. After 30 min of incubation, the plates were taken out, and the reactions were terminated with 250 μL of an internal standard-containing ACN solution. […]
The IC50 value of the drug for the site of metabolism of midazolam in CYP3A4 was calculated by Graphpad Prism and is shown in Table 7.
Background: Liver microsomes are a subcellular fraction often used to study metabolism.

For data set [2], the target named is hERG potassium channels (Homo sapiens (Human), UniProt Q12809). The experiment in a line: Blocking of hERG potassium currents (automated patch clamp, HEK293-hERG). The class given is cell-based. The protocol: The blocking of hERG potassium currents by the compound disclosed herein was tested in a stable cell strain transfected with hERG potassium channels using automated patch clamp.
Sequence of hERG potassium channels (Q12809 whole entry): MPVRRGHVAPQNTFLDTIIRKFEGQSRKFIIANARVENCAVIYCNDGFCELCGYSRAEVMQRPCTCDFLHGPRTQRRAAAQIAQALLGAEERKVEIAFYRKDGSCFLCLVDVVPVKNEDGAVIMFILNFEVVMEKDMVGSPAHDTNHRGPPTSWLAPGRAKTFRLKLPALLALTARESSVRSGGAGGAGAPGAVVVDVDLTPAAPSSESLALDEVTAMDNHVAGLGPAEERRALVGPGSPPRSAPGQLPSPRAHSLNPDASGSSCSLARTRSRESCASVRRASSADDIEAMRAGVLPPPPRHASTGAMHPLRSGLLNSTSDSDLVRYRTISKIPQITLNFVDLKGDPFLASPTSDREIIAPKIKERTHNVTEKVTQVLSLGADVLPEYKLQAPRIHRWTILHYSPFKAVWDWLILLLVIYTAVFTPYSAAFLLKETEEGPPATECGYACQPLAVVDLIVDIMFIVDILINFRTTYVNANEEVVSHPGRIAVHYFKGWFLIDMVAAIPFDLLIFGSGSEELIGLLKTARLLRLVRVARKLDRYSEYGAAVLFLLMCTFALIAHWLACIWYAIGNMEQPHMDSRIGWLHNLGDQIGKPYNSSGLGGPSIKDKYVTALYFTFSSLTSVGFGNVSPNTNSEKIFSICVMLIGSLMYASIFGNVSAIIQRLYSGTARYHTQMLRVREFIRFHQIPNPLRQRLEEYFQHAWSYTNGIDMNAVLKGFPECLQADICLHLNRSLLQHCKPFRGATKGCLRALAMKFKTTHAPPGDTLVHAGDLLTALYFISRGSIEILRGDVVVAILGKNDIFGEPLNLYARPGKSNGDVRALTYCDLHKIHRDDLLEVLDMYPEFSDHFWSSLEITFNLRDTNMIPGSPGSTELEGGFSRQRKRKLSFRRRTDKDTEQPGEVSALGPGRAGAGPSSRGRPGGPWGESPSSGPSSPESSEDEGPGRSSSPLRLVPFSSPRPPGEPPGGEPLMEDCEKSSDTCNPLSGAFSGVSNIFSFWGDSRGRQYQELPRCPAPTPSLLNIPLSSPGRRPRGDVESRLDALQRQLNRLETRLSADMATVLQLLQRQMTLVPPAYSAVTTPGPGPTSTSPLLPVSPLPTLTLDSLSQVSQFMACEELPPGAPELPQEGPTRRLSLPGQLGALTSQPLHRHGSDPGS
Stably-expressed HEK293-hERG cell strains were subcultured at a density of 1:4 in an MEM/EBSS medium (10% FBS, 400 μg/mL G418, 1% MEM non-essential amino acid solution (100×), and 1% sodium pyruvate solution) and subjected to an automated patch clamp experiment within 48-72 h after the start of the culture. On the day of the experiment, the cells were digested with 0.25% pancreatin, then centrifuged, collected, and resuspended in an extracellular fluid (140 mM NaCl, 4 mM KCl, 1 mM MgCl2, 2 mM CaCl2, 5 mM D-glucose monohydrate, 10 mM Hepes, pH 7.4, 298 mOsm) to form a cell suspension. The cell suspension was placed on the cell bank of the Patchliner instrument that transferred the cells to the chip (NPC-16) using a negative pressure controller. The negative pressure drew individual cells to the wells of the chip. […] Data were recorded and analyzed using the HEAK Patchmaster, HEAK EPC10 patch clamp amplifier (Nanion), Pathliner software and Pathcontrol HTsoftware, and the current of the compound at each concentration and the current of the blank control were analyzed.

The IC50 is the concentration that gives 50% inhibition. High values mean weaker potency, low ones greater potency.

A value given as a limit tells only on which side of the number the result lay.

Sequence of CYP3A4 (P08684 whole entry): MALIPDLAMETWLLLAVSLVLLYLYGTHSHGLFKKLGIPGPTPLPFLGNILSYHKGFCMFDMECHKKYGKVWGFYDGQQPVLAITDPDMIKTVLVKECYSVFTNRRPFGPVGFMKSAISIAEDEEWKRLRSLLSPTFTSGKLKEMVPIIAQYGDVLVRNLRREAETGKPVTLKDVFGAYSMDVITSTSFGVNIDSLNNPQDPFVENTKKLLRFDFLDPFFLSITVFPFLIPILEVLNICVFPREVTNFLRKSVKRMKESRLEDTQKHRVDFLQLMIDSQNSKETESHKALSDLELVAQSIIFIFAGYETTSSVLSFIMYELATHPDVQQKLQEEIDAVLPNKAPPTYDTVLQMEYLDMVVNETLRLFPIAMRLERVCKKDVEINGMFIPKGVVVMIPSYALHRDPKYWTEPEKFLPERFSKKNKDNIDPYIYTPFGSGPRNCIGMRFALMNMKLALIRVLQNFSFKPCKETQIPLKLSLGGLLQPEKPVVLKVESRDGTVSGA

As for `[2H]C1([2H])Oc2cc3c(cc2O1)[C@@H](c1ccc(NC2CN(CCCF)C2)cn1)N(CC(F)(F)CO)[C@H](C)C3` [Compound 1, 2,2-Difluoro-3-((5S,7R)-5-(5-((1-(3-fluoropropyl)azetidin-3-yl)amino)pyridin-2-yl)-7-methyl-7,8-dihydro-[1,3]dioxolo[4,5-g]isoquinolin-6(5H)-yl-2,2-d2)propan-1-ol], the IC50 shift at 30 min in data set [1] (human, microsomes) worked out at 0.7. In addition, the IC50 in data set [1] (pre-incubation with NADPH 30 min) was 13.1 µM; in data set [1] (pre-incubation without NADPH) it was 19.6 µM; in data set [2] it was > 30 µM.
